Values quoted from earlier work in EP4512393A1, “COMBINATION OF SODIUM DICHLOROACETATE AND VALPROIC ACID SALTS FOR THE TREATMENT OF VIRAL AND BACTERIAL INFECTIONS AND INFLAMMATORY DISEASES” (Lietuvos sveikatos mokslu universitetas, priority 2023, dated 2025).

Test system: leukocyte migration into the peritoneal cavity
Conditions: peritonitis-induced male rat model

In the case of CCCC(CCC)C(=O)O [VPA, 2-n-propyl-pentanoic acid], the “inhibition of leukocyte migration into the peritoneal cavity” value is listed as 92%.
